Source: patent publication US12344603B2 (Genentech, Inc., priority 2020, dated 2025)
Structures can show the parent of a compound that is named as a salt.

Target: IRE1α (Homo sapiens (Human), UniProt O75460, D688N)
Assay: IRE1α TR-FRET competition binding assay (IRE1α HTRF)
Details: TR-FRET competition binding to kinase domain of IRE1α
Protocol: IRE1α TR-FRET Competition Binding Assay. The affinity of compound binding to the kinase domain of IRE1α was determined using a time-resolved fluorescence resonance energy transfer (TR-FRET) competition assay.
The purified protein (final concentration 0.25 nM) was pre-incubated with anti-His Europium labeled antibody (Life Technologies PV5596, final concentration 2 nM) for one hour at 4° C. in TR-FRET Assay Buffer (50 mM HEPES, pH 7.5, 10 mM MgCl2, 0.083 mM Brij 35, 1 mM DTT, and 0.1% bovine gamma globulin) prior to addition to test compounds. An Alexa fluor 647-labeled probe based on an ATP competitive inhibitor was added to a final concentration of 2 nM. Reactions were carried out for one hour at room temperature in a final volume of 20 μL in 384 well white ProxiPlates (Perkin Elmer 6008289). Binding of the probe to the IRE1α protein was detected in an Envision instrument (PerkinElmer) equipped with a TRF laser option and a LANCE/Delfia Dual/Bias D400/D630 mirror (Ex 347 nm, 1st Em 665 nm, 2nd Em 615 nm).

IRE1α, sequence (O75460 547-977 D688N): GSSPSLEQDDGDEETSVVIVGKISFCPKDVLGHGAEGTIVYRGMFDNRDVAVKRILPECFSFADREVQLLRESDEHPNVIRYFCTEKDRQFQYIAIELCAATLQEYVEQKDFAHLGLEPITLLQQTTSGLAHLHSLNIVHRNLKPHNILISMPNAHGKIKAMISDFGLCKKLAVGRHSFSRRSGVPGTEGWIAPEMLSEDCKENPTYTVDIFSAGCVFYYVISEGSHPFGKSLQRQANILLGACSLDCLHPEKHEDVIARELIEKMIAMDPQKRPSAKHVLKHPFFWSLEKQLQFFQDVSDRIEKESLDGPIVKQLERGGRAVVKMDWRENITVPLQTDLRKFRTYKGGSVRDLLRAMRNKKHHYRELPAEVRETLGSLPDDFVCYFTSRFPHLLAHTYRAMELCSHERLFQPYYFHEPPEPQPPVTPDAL

Row | Compound | IC50 [nM] | IC50 (hydrochloride) [nM]
1 | CC(C)n1c(=O)c(-c2cc(F)c(NS(=O)(=O)Cc3ccccc3F)c(F)c2F)cc2cnc(N[C@@H]3CNC[C@@H](O)C3)nc21 (racemic) [Compound 87, 1-(2-Fluorophenyl)-N-(2,3,6-trifluoro-4-(2-((5-hydroxypiperidin-3-yl)amino)-8-isopropyl-7-oxo-7,8-dihydropyrido[2,3-d]pyrimidin-6-yl)phenyl)methanesulfonamide] | 0.63 | 
2 | CC(C)n1c(=O)c(-c2ccc(NS(=O)(=O)CCC(F)(F)F)c(F)c2)cc2cnc(NC3CCC(N(C)C)C(F)C3)nc21 (racemic) [Compound 154, N-(4-(2-((4-(Dimethylamino)-3-fluorocyclohexyl)amino)-8-isopropyl-7-oxo-7,8-dihydropyrido[2,3-d]pyrimidin-6-yl)-2-fluorophenyl)-3,3,3-trifluoropropane-1-sulfonamide hydrochloride] |  | 0.13
3 | CC(C)n1c(=O)c(-c2cc(F)c(NS(=O)(=O)CC3CCC3(F)F)c(F)c2)nc2cnc(N[C@H]3CC[C@H](N(C)C)CC3)nc21 (mixture of isomers) [Example 250, 1-(2,2-Difluorocyclobutyl)-N-[4-[2-[[4-(dimethylamino)cyclohexyl]amino]-8-isopropyl-7-oxo-pteridin-6-yl]-2,6-difluoro-phenyl]methanesulfonamide] | 0.2 | 
4 | CC(C)n1c(=O)c(-c2ccc(NS(=O)(=O)CC3CCC3(F)F)c(F)c2)nc2cnc(N[C@H]3CC[C@H](N(C)C)CC3)nc21 (mixture of isomers) [Example 263, 1-(2,2-Difluorocyclobutyl)-N-[4-[2-[[4-(dimethylamino)cyclohexyl]amino]-8-isopropyl-7-oxo-pteridin-6-yl]-2-fluoro-phenyl]methanesulfonamide] | 0.1 | 
5 | CC(C)n1c(=O)c(-c2ccc(NS(=O)(=O)CC3CCCC3(F)F)c(F)c2)nc2cnc(N[C@H]3CC[C@H](N(C)C)CC3)nc21 (mixture of isomers) [Example 264, 1-(2,2-Difluorocyclopentyl)-N-[4-[2-[[4-(dimethylamino)cyclohexyl]amino]-8-isopropyl-7-oxo-pteridin-6-yl]-2-fluoro-phenyl]methanesulfonamide] | 0.1 | 
6 | CC(C)n1c(=O)c(-c2ccc(NS(=O)(=O)CC3CCCCC3(F)F)c(F)c2)nc2cnc(N[C@H]3CC[C@H](N(C)C)CC3)nc21 (mixture of isomers) [Example 272, 1-(2,2-Difluorocyclohexyl)-N-[4-[2-[[4-(dimethylamino)cyclohexyl]amino]-8-isopropyl-7-oxo-pteridin-6-yl]-2-fluoro-phenyl]methanesulfonamide] | 0.2 | 
7 | CC(C)n1c(=O)c(-c2ccc(NS(=O)(=O)CC3CCC4C(C3)C4(F)F)c(F)c2)nc2cnc(N[C@H]3CC[C@H](N(C)C)CC3)nc21 (mixture of isomers) [Example 273, 1-(7,7-Difluoronorcaran-3-yl)-N-[4-[2-[[(1RS)-4-(dimethylamino)cyclohexyl]amino]-8-isopropyl-7-oxo-pteridin-6-yl]-2-fluoro-phenyl]methanesulfonamide] | 0.2 | 
8 | CC(C)n1c(=O)c(-c2cc(F)c(NC(=O)C3CC3F)c(F)c2F)cc2cnc(N[C@H]3CC[C@H](N(C)C)CC3)nc21 (single isomer, unassigned) [Compound 98A, N-(4-(2-(((1r,4r)-4-(Dimethylamino)cyclohexyl)amino)-8-isopropyl-7-oxo-7,8-dihydropyrido[2,3-d]pyrimidin-6-yl)-2,3,6-trifluorophenyl)-2-fluorocyclopropane-1-carboxamide] | 2.8 | 
9 | CC(C)n1c(=O)c(-c2cc(F)c(NC(=O)C3CC3F)c(F)c2F)cc2cnc(N[C@H]3CC[C@H](N(C)C)CC3)nc21 (single isomer, unassigned) [Compound 98B, N-(4-(2-(((1r,4r)-4-(Dimethylamino)cyclohexyl)amino)-8-isopropyl-7-oxo-7,8-dihydropyrido[2,3-d]pyrimidin-6-yl)-2,3,6-trifluorophenyl)-2-fluorocyclopropane-1-carboxamide] | 2.2 | 
10 | COCCN(C)C1CCC(Nc2ncc3cc(-c4cc(F)c(NS(=O)(=O)Cc5ccccc5)c(F)c4F)c(=O)n(C(C)C)c3n2)CC1 (single isomer, unassigned) [Compound 102A, 1-Phenyl-N-(2,3,6-trifluoro-4-(8-isopropyl-2-((4-((2-methoxyethyl)(methyl)amino)cyclohexyl)amino)-7-oxo-7,8-dihydropyrido[2,3-d]pyrimidin-6-yl)phenyl)methanesulfonamide] | 0.16 | 
11 | COCCN(C)C1CCC(Nc2ncc3cc(-c4cc(F)c(NS(=O)(=O)Cc5ccccc5)c(F)c4F)c(=O)n(C(C)C)c3n2)CC1 (single isomer, unassigned) [Compound 102B, 1-Phenyl-N-(2,3,6-trifluoro-4-(8-isopropyl-2-((4-((2-methoxyethyl)(methyl)amino)cyclohexyl)amino)-7-oxo-7,8-dihydropyrido[2,3-d]pyrimidin-6-yl)phenyl)methanesulfonamide] | 66 | 
12 | CC(C)n1c(=O)c(-c2ccc(NS(=O)(=O)CCC(F)(F)F)c(F)c2)cc2cnc(NC3CCC(N(C)C)C(F)C3)nc21 (single isomer, unassigned) [Compound 110A, N-(4-(2-((4-(Dimethylamino)-3-fluorocyclohexyl)amino)-8-isopropyl-7-oxo-7,8-dihydropyrido[2,3-d]pyrimidin-6-yl)-2-fluorophenyl)-3,3,3-trifluoropropane-1-sulfonamide] | 0.18 | 
13 | CC(C)n1c(=O)c(-c2ccc(NS(=O)(=O)CCC(F)(F)F)c(F)c2)cc2cnc(NC3CCC(N(C)C)C(F)C3)nc21 (single isomer, unassigned) [Compound 110B, N-(4-(2-((4-(Dimethylamino)-3-fluorocyclohexyl)amino)-8-isopropyl-7-oxo-7,8-dihydropyrido[2,3-d]pyrimidin-6-yl)-2-fluorophenyl)-3,3,3-trifluoropropane-1-sulfonamide] | 0.7 | 
14 | CC(C)n1c(=O)c(-c2cc(F)c(NS(=O)(=O)CCC(F)(F)F)c(F)c2)cc2cnc(NC3CCC(N(C)C)C(F)C3)nc21 (single isomer, unassigned) [Compound 118A, N-(4-(2-((4-(Dimethylamino)-3-fluorocyclohexyl)amino)-8-isopropyl-7-oxo-7,8-dihydropyrido[2,3-d]pyrimidin-6-yl)-2,6-difluorophenyl)-3,3,3-trifluoropropane-1-sulfonamide] | 0.73 | 
15 | CC(C)n1c(=O)c(-c2cc(F)c(NS(=O)(=O)CCC(F)(F)F)c(F)c2)cc2cnc(NC3CC[C@H](N(C)C)C(F)C3)nc21 (single isomer, unassigned) [Compound 118B, N-(4-(2-((4-(Dimethylamino)-3-fluorocyclohexyl)amino)-8-isopropyl-7-oxo-7,8-dihydropyrido[2,3-d]pyrimidin-6-yl)-2,6-difluorophenyl)-3,3,3-trifluoropropane-1-sulfonamide] | 0.32 | 
16 | CC[C@@H](C)n1c(=O)c(-c2ccc(NS(=O)(=O)CCC(F)(F)F)c(F)c2)cc2cnc(N[C@H]3CC[C@H](N(C)C)CC3)nc21 (single isomer, unassigned) [Compound 203] | 0.21 | 

Second part, the molecule after the results:

Row | IC50 [nM] | IC50 (hydrochloride) [nM] | Compound
17 | 0.21 |  | CC(C)n1c(=O)c(-c2ccc(NS(=O)(=O)CC3CCC3(F)F)c(F)c2)cc2cnc(N[C@H]3CC[C@H](N(C)C)CC3)nc21 (single isomer, unassigned) [Compound 153A, 1-(2,2-Difluorocyclobutyl)-N-(4-(2-(((1r,4r)-4-(dimethylamino)cyclohexyl)amino)-8-isopropyl-7-oxo-7,8-dihydropyrido[2,3-d]pyrimidin-6-yl)-2-fluorophenyl)methanesulfonamide]
18 | 0.16 |  | CC(C)n1c(=O)c(-c2ccc(NS(=O)(=O)CC3CCC3(F)F)c(F)c2)cc2cnc(N[C@H]3CC[C@H](N(C)C)CC3)nc21 (single isomer, unassigned) [Compound 153B, 1-(2,2-Difluorocyclobutyl)-N-(4-(2-(((1r,4r)-4-(dimethylamino)cyclohexyl)amino)-8-isopropyl-7-oxo-7,8-dihydropyrido[2,3-d]pyrimidin-6-yl)-2-fluorophenyl)methanesulfonamide]
19 | 0.26 |  | CCC(C)n1c(=O)c(-c2ccc(NS(=O)(=O)Cc3ccccc3F)c(F)c2)cc2cnc(N[C@@H]3CNC[C@@H](F)C3)nc21 (single isomer, unassigned) [Compound 202A, hydrochloride]
20 | 0.26 |  | CCC(C)n1c(=O)c(-c2ccc(NS(=O)(=O)Cc3ccccc3F)c(F)c2)cc2cnc(N[C@@H]3CNC[C@@H](F)C3)nc21 (single isomer, unassigned) [Compound 202B, hydrochloride]
21 | 0.1 |  | CC[C@H](C)n1c(=O)c(-c2ccc(NS(=O)(=O)CCC(F)(F)F)c(F)c2)cc2cnc(N[C@H]3CC[C@H](N(C)C)CC3)nc21 (single isomer, unassigned) [Compound 203A]
22 | 0.24 |  | CC(C)n1c(=O)c(-c2cc(F)c(NS(=O)(=O)CCC(F)(F)F)c(F)c2)nc2cnc(N[C@H]3CC[C@H](N(C)C)[C@@H](F)C3)nc21 (stereo in doubt) [Compound 168A, N-(4-(2-((4-(Dimethylamino)-3-fluorocyclohexyl)amino)-8-isopropyl-7-oxo-7,8-dihydropteridin-6-yl)-2,6-difluorophenyl)-3,3,3-trifluoropropane-1-sulfonamide]
